Common to all, as to format: cell-based, human
Data set [1] deals with MDA-MB-231 cells. Put plainly: Transwell migration assay. The conditions noted are these: MDA-MB-231, 400 nM, 24 hours migration. The procedure:
(§1) FIGS. 13A, 13B and 13C. Effect of aptamer apMNKQ2 on the migration and invasion of breast cell lines. The three lines of study were seeded in 6-well plates at a density of 2.5×10^5 cells/well and transfected at 24 hours with apMNKQ2 at the established working concentrations. The cell lines were deprived of serum after 6 hours and collected and re-seeded (4×10^4 cells/well) after 24 hours in a transwell […], in order to perform migration and invasion assays, respectively. At 24 hours, the membranes of the transwell are stained with Hoechst and cells that have gone through the membranes are quantified using fluorescence microscopy (FIG. 13A). The boxes (FIGS. 13B and 13C) represent the mean±the maximum and minimum of 4-5 independent experiments (*p<0.05, **p<0.01, and ***p<0.001 with respect to the control aptamer AT).
(§2) Cell migration and invasion assays were performed using transwell (Corning, USA). The cells, previously transfected and incubated for 16 hours, were deprived of serum for 18 hours. After that time, they were collected, counted, and reseeded 4×10^4 cells in 300 μl of a serum-free complete medium inside the transwell (migration) or a transwell on which a layer of 100 μL of Matrigel (Corning, USA) (invasion) had previously been polymerized. […] Finally, two washes in PBS were performed, and 5 photographs of each membrane of the transwell were taken using a fluorescence microscope (Olympus IX70). The number of cells was analyzed using the imageJ program.
(§3) To analyze the effect of the aptamer on cell migration, experiments were carried out using transwells instead of the wound healing technique. […] At 18 hours, 40,000 cells are collected, counted, and seeded in small “baskets” in a serum-free medium, and these baskets are immersed in the well of the plate with complete serum, such that the serum acts as a chemoattractant and the cells migrate from the basket to the well, going through the membrane of the transwell. […]

Data set [2] concerns MCF7 cells. Put plainly: Transwell migration assay. The conditions noted are these: MCF7, 150 nM, 24 hours migration. On the procedure:
as §1, §2, §3

Data set [3] deals with MDA-MB-468 cells. Put plainly: Transwell migration assay. The conditions noted are these: MDA-MB-468, 50 nM, 24 hours migration. The procedure: as §1, §2, §3
The test system of data set [4] is MDA-MB-231 cells. Briefly: Apoptosis by annexin V/propidium iodide flow cytometry. The conditions noted are these: MDA-MB-231, working concentration 400 nM, 24 hours. On the procedure: (§4) FIGS. 10A-10C. Analysis of the effect of the aptamer on apoptosis with annexin V in breast cell lines. MCF7 (FIG. 10A), MDA-MB-231 (FIG. 10B), and MDA-MB-468 (FIG. 10C) cells were seeded in 6-well plates at a density of 2.5×10^5 cells/well and transfected at 24 hours with apMNKQ2 at the set working concentrations. After 24 hours, the cells were collected, fixed, and stained with annexin V-FITC and propidium iodide. Finally, they were analyzed by cytometry. The bars represent the mean±SEM of 3 independent experiments (*p<0.05, **p<0.01, and ***p<0.001).
(§5) The assays were carried out by seeding 5×10^5 cells/well in 6-well plates and transfecting the cells 24 hours later. After 24 hours of transfection, the cells were collected and washed twice with PBS. They were then resuspended in a 1× binding buffer and left at a concentration of 1×10^6 cells/mL. Aliquots of 10^5 cells were separated from the preceding solution, as many as the number of treatments, and the annexin V and propidium iodide dyes were added to obtain: a double negative control (without labeling, living cells), a double positive for both types of labeling (late apoptotic cells and necrotic cells will be labeled), and cells labeled separately with annexin V and propidium iodide. They were incubated in darkness for 15 minutes at room temperature and brought to a final volume of 500 μL with a 1× binding buffer. Finally, the cells were passed through a flow cytometer (BD FACSCalibur™, BDBiosciences, USA) within a time no more than 1 hour after labeling. The data obtained was analyzed by means of the Flowing software 2.5.1 program.
(§6) The translocation of the […] from the inner face of the plasma membrane of the cells to the outer face by translocases is a process characteristic of apoptotic cells. To study this process, assays with annexin V-fluorescein (FITC) were performed in three cell lines. This recombinant protein binds to the phosphatidylserine residues exposed on the outer face of the plasma membrane of apoptotic cells. Together with said recombinant protein, propidium iodide (IP), an impermeable DNA marker that only enters cells when the membrane is compromised, was also used. To perform these assays, the cells were transfected with apMNKQ2 and with the control aptamer AT at the working concentrations. At 24 hours, the cells were collected, fixed, and stained with annexin V-FITC and propidium iodide. Finally, the cells were analyzed by means of flow cytometry and differentiation was made between non-apoptotic cells (annexin V-FICT negative/IP negative), apoptotic cells (annexin V-FICT positive/IP negative), late apoptotic cells (annexin V-FICT positive/IP positive), and necrotic cells (annexin V-FITC negative/IP positive).

The test system of data set [5] is MCF7 cells. Described as above. The conditions noted are these: MCF7, working concentration 150 nM, 24 hours. The procedure: as §4, §5, §6
Data set [6] deals with MDA-MB-468 cells. The data set is described as above. The conditions noted are these: MDA-MB-468, working concentration 50 nM, 24 hours. On the procedure: as §4, §5, §6

“5′TGGGGTGGGCGGGCGGGGGTGGGGGTGGT-3′ (DNA, backbone and methylation of C not given here; further chemistry not fully specified) [apMNKQ2]”: the “inhibition of migration (transwell)” value was “in a statistically significant manner” in data set [1], “in a statistically significant manner” in data set [2] and “capable of inhibiting migration” in data set [3]. The “induction of apoptosis (annexin V-FITC/propidium iodide)” value is “capable of inducing apoptosis” in data set [4]; “capable of inducing apoptosis” in data set [5]; “greater and statistically significant” in data set [6]. Moreover, the “late apoptosis with respect to the control” value in data set [5] was “statistically significant”.

The record behind these values is patent publication US12492403B2, “Aptamers and the use thereof in the treatment of cancer” (FUNDACIÓN PARA LA INVESTIGACIÓN BIOMÉDICA DEL HOSPITAL …, priority 2018, dated 2025).
